{"source": "patent US5214030A", "about": "“Calcitonin gene-related peptides for treating erectile dysfunctions” (priority 1989, dated 1993)", "origin": "cited, not measured here", "test_system": "Cynomolgus monkey", "details": "1-2 intracavernosal injections per week over 12 months"}
{"smiles": "COc1ccc(Cc2nccc3cc(OC)c(OC)cc23)cc1OC", "note": "[papaverine]", "values": [{"measurement": "findings in the erectile tissue", "result": "extensive fibrous formation in further parts of the erectile tissue"}]}
